Converted amounts (≈) assume the structure as drawn.
Columns and labels:
Type in all cases: functional
[1] = tested on: Mycobacterium tuberculosis; experiment: Growth inhibition of Mycobacterium tuberculosis H37Rv at 6.25 ug/ml after 28 days by Lowenstein-Jensen method; details: 672 h, read-out: GI
Candida albicans = experiment: Antifungal activity against Candida albicans MTCC 227 after overnight incubation by broth microdilution method
Aspergillus fumigatus = experiment: Antifungal activity against Aspergillus fumigatus MTCC 3008 after overnight incubation by broth microdilution method
Vibrio cholerae = experiment: Antibacterial activity against Vibrio cholerae MTCC 3906 after overnight incubation by broth microdilution method
Salmonella typhi = experiment: Antibacterial activity against Salmonella enterica subsp. enterica serovar Typhi MTCC 98 after overnight incubation by broth microdilution method
Escherichia coli = experiment: Antibacterial activity against Escherichia coli MTCC 443 after overnight incubation by broth microdilution method
Clostridium tetani = experiment: Antibacterial activity against Clostridium tetani MTCC 449 after overnight incubation by broth microdilution method
Streptococcus pneumoniae = experiment: Antibacterial activity against Streptococcus pneumoniae MTCC 1936 after overnight incubation by broth microdilution method
Bacillus subtilis = experiment: Antibacterial activity against Bacillus subtilis MTCC 441 after overnight incubation by broth microdilution method

Row | Compound | inhibition of growth at 6.25 µg/mL [1] [%] | MIC99 (Candida albicans) [µg/mL] | MIC99 (Aspergillus fumigatus) [µg/mL] | MIC99 (Vibrio cholerae) [µg/mL] | MIC99 (Salmonella typhi) [µg/mL] | MIC99 (Escherichia coli) [µg/mL] | MIC99 (Clostridium tetani) [µg/mL] | MIC99 (Streptococcus pneumoniae) [µg/mL] | MIC99 (Bacillus subtilis) [µg/mL]
1 | Cc1ccc(Oc2nc3ccc(C)cc3cc2-c2c(C#N)c(N)n3c(nc4ccccc43)c2C#N)cc1 | 32 | 1000 (≈ 2080 µM) | > 1000 | 100 (≈ 208 µM) | 125 (≈ 260 µM) | 100 (≈ 208 µM) | 500 (≈ 1040 µM) | 250 (≈ 520 µM) | 100 (≈ 208 µM)
2 | COc1ccc(Oc2nc3ccccc3cc2-c2c(C#N)c(N)n3c(nc4cc(C)ccc43)c2C#N)cc1 | 64 | 200 (≈ 403 µM) | 1000 (≈ 2010 µM) | 250 (≈ 503 µM) | 125 (≈ 252 µM) | 100 (≈ 201 µM) | 200 (≈ 403 µM) | 250 (≈ 503 µM) | 250 (≈ 503 µM)
3 | N#Cc1c(-c2cc3ccccc3nc2Oc2ccc(F)cc2)c(C#N)c2nc3ccccc3n2c1N | 75 | 500 (≈ 1060 µM) | 500 (≈ 1060 µM) | 250 (≈ 531 µM) | 250 (≈ 531 µM) | 200 (≈ 425 µM) | 200 (≈ 425 µM) | 125 (≈ 266 µM) | 250 (≈ 531 µM)
4 | COc1ccc2nc(Oc3ccc(F)cc3)c(-c3c(C#N)c(N)n4c(nc5ccccc54)c3C#N)cc2c1 | 86 | > 1000 | 500 (≈ 999 µM) | 200 (≈ 400 µM) | 500 (≈ 999 µM) | 200 (≈ 400 µM) | 200 (≈ 400 µM) | 500 (≈ 999 µM) | 200 (≈ 400 µM)
5 | COC1=CC(=O)C[C@@H](C)[C@]12Oc1c(Cl)c(OC)cc(OC)c1C2=O [GRISEOFULVIN] | – | 500 (≈ 1420 µM) | 100 (≈ 283 µM) | – | – | – | – | – | –
6 | O=C(O)c1cn(C2CC2)c2cc(N3CCNCC3)c(F)cc2c1=O [CIPROFLOXACIN] | – | – | – | 25 (≈ 75.4 µM) | 25 (≈ 75.4 µM) | 25 (≈ 75.4 µM) | – | 50 (≈ 151 µM) | 50 (≈ 151 µM)
7 | COc1ccc(Oc2nc3ccc(C)cc3cc2-c2c(C#N)c(N)n3c(nc4ccccc43)c2C#N)cc1 | 62 | 1000 (≈ 2010 µM) | > 1000 | 200 (≈ 403 µM) | 200 (≈ 403 µM) | 250 (≈ 503 µM) | 500 (≈ 1010 µM) | 100 (≈ 201 µM) | 125 (≈ 252 µM)
8 | Cc1ccc(Oc2nc3ccccc3cc2-c2c(C#N)c(N)n3c(nc4cc(C)ccc43)c2C#N)cc1 | 12 | 500 (≈ 1040 µM) | 1000 (≈ 2080 µM) | 200 (≈ 416 µM) | 200 (≈ 416 µM) | 62.5 (≈ 130 µM) | 62.5 (≈ 130 µM) | 200 (≈ 416 µM) | 250 (≈ 520 µM)
9 | Cc1ccc(Oc2nc3ccc(C)cc3cc2-c2c(C#N)c(N)n3c(nc4cc(C)ccc43)c2C#N)cc1 | 58 | 500 (≈ 1010 µM) | 500 (≈ 1010 µM) | 125 (≈ 253 µM) | 250 (≈ 506 µM) | 200 (≈ 404 µM) | 125 (≈ 253 µM) | 250 (≈ 506 µM) | 200 (≈ 404 µM)
10 | Cc1ccc2nc(Oc3ccccc3)c(-c3c(C#N)c(N)n4c(nc5ccccc54)c3C#N)cc2c1 | 19 | 250 (≈ 536 µM) | 1000 (≈ 2140 µM) | 200 (≈ 429 µM) | 100 (≈ 214 µM) | 62.5 (≈ 134 µM) | 250 (≈ 536 µM) | 200 (≈ 429 µM) | 200 (≈ 429 µM)
11 | COc1ccc(Oc2nc3ccc(OC)cc3cc2-c2c(C#N)c(N)n3c(nc4ccccc43)c2C#N)cc1 | 79 | > 1000 | 250 (≈ 488 µM) | 125 (≈ 244 µM) | 200 (≈ 390 µM) | 125 (≈ 244 µM) | 200 (≈ 390 µM) | 500 (≈ 976 µM) | 250 (≈ 488 µM)
12 | COc1ccc2nc(Oc3ccccc3)c(-c3c(C#N)c(N)n4c(nc5ccccc54)c3C#N)cc2c1 | 46 | 500 (≈ 1040 µM) | 1000 (≈ 2070 µM) | 200 (≈ 415 µM) | 200 (≈ 415 µM) | 250 (≈ 518 µM) | 100 (≈ 207 µM) | 250 (≈ 518 µM) | 250 (≈ 518 µM)
13 | Cc1ccc(Oc2nc3ccccc3cc2-c2c(C#N)c(N)n3c(nc4ccccc43)c2C#N)cc1 | 52 | > 1000 | 250 (≈ 536 µM) | 100 (≈ 214 µM) | 100 (≈ 214 µM) | 100 (≈ 214 µM) | 250 (≈ 536 µM) | 125 (≈ 268 µM) | 250 (≈ 536 µM)
14 | COc1ccc2nc(Oc3ccc(C)cc3)c(-c3c(C#N)c(N)n4c(nc5ccccc54)c3C#N)cc2c1 | 58 | 500 (≈ 1010 µM) | > 1000 | 250 (≈ 503 µM) | 250 (≈ 503 µM) | 125 (≈ 252 µM) | 125 (≈ 252 µM) | 500 (≈ 1010 µM) | 200 (≈ 403 µM)
15 | CC1(C)S[C@@H]2[C@H](NC(=O)[C@H](N)c3ccccc3)C(=O)N2[C@H]1C(=O)O [AMPICILLIN] | – | – | – | 100 (≈ 286 µM) | 100 (≈ 286 µM) | 100 (≈ 286 µM) | 250 (≈ 715 µM) | 100 (≈ 286 µM) | 250 (≈ 715 µM)
